# According to US6444617B1, “Fused-heterocycle dicarboxylic acid diamide derivatives or salts thereof, herbicide and usage thereof” (Nihon Nohyaku Co., Ltd., priority 1998, dated 2002):
# How the values were obtained:
# Format in all cases: in vivo
# [1] = tested on: cleavers (Galium aparine L.), Ga; test: Test Example 4: herbicidal effect on upland weeds after emergence; conditions: dosage 5 kg/ha; sprayed after emergence; judged 14 days after treatment
# From the text: (§1) Herbicidal Effect on Upland Weeds After Emergence Polyethylene-made vats having a size of 10 cm (length)×20 cm (width)×5 cm (height) were filled with soil, sown with seeds of the following noxious upland weeds and with seeds of soybean plant and wheat as upland crop plants, and then covered with soil. The plants were made to grow up until they reached the leaf-stages mentioned below, after which an agent comprising a prescribed concentration of a compound of the present invention (listed in Tables 1 to 14) as active ingredient was sprayed. Fourteen days after the treatment, the herbicidal effect was investigated, from which weed-killing rate was calculated in the same manner as in Test Example 1 and the results were judged. […] Sample weeds, their leaf stages, and leaf stages of soybean plant and wheat were as follows: [table]
# [2] = tested on: forxtail grass (Alopecurus aequalis var. amurensis Ohwi), Am; test: as above; conditions: dosage 5 kg/ha; sprayed after emergence; judged 14 days after treatment
# From the text: as §1
# [3] = tested on: bird's eye speedwell (Veronica persica Poir.), Vp; test: as above; conditions: dosage 5 kg/ha; sprayed after emergence; judged 14 days after treatment
# From the text: as §1
# [4] = tested on: cocklebur (Xanthium strumarium L.), Xs; test: as above; conditions: dosage 5 kg/ha; sprayed after emergence; judged 14 days after treatment
# From the text: as §1
# [5] = tested on: velvetleaf (Abutilon theophtasti L.), At; test: as above; conditions: dosage 5 kg/ha; sprayed after emergence; judged 14 days after treatment
# From the text: as §1
# [6] = tested on: barnyard grass (Echinochloa crus-galli Beauv.), Ec; test: as above; conditions: dosage 5 kg/ha; sprayed after emergence; judged 14 days after treatment
# From the text: as §1
# [7] = tested on: cleavers (Galium aparine L.), Ga; test: Test Example 3: herbicidal effect on upland weeds before emergence; conditions: dosage 5 kg/ha
# Description: (§2) Herbicidal Effect on Upland Weeds Before Emergence […] Then, a liquid preparation of an agent comprising a prescribed concentration of a compound of the present invention (the compounds listed in Tables 1-14) as active ingredient was sprayed. Fourteen days after the treatment, the herbicidal effect was investigated, from which weed-killing rate was calculated in the same manner as in Test Example 1, and the herbicidal effect was judged.
# [8] = tested on: forxtail grass (Alopecurus aequalis var. amurensis Ohwi), Am; test: as above; conditions: foxtail grass, dosage 5 kg/ha
# Description: as §2
# [9] = tested on: bird's eye speedwell (Veronica persica Poir.), Vp; test: as above; conditions: dosage 5 kg/ha
# Description: as §2
# [10] = tested on: cocklebur (Xanthium strumarium L.), Xs; test: as above; conditions: dosage 5 kg/ha
# Description: as §2
# [11] = tested on: velvetleaf (Abutilon theophtasti L.), At; test: as above; conditions: dosage 5 kg/ha
# Description: as §2
# [12] = tested on: barnyard grass (Echinochloa crus-galli Beauv.), Ec; test: as above; conditions: dosage 5 kg/ha
# Description: as §2
# [13] = tested on: soybean plant (So); test: Test Example 3: phytotoxicity to upland crop plants, treatment before emergence; conditions: dosage 5 kg/ha
# Description: as §2, with “judged. At the same time, phytotoxicity to soybean plant and wheat was investigated and judged according to the criterion mentioned below.” for “judged.”
# [14] = tested on: wheat (Wh); test: as above; conditions: dosage 5 kg/ha
# Description: as §2, with “judged. At the same time, phytotoxicity to soybean plant and wheat was investigated and judged according to the criterion mentioned below.” for “judged.”
# [15] = tested on: bulrush (Scirpus juncoides Roxb.); test: Test Example 1: herbicidal effect on paddy field weeds before emergence; conditions: Dosage 5 kg/ha
# Description: (§3) Test for Herbicidal Effect on Paddy Field Weeds Before Emergence Soil was filled into 1/10000 are pots and brought into a state of paddy field, in which seeds of barnyard grass (Echinochloa crus-galli Beauv.) and bulrush (Scirpus juncoides Roxb.) were made to be before germination. The soil in the pots were treated with a solution containing a predetermined dosage of a chemical agent comprising a compound of the present invention listed in Tables 1 to 14. Twenty one days after the treatment, the herbicidal effect was investigated, the result was compared with that in untreated plot to calculate the weed-controlling rate, and the herbicidal effect was judged according to the following criterion: […]
# [16] = tested on: barnyard grass (Echinochloa crus-galli Beauv.); test: as above; conditions: Dosage 5 kg/ha
# Description: as §3
# [17] = tested on: monochoria (Monochoria vaginalis Presl); test: Test Example 2: herbicidal effect on paddy field weeds after emergence; conditions: Dosage 5 kg/ha; one-leaved stage; 21 days after treatment
# Description: (§4) Test for Herbicidal Effect on Paddy Field Weeds After Emergence. Soil was filled into 1/10000 are pots and brought into a state of paddy field, in which seeds of barnyard grass (Echinochloa crus-galli Beauv.), bulrush (Scirpus juncoides Roxb.) and monochoria (Monochoria vaginalis Presl) were made to reach one-leaved stage. The soil in the pots were treated with a solution containing a predetermined dosage of a chemical agent comprising a compound of the present invention listed in Tables 1 to 14. Twenty one days after the treatment, the herbicidal effect was investigated and the result was compared with that in untreated plot to calculate the weed-controlling rate, and the herbicidal effect was judged according to the same criterion as in Test Example 1.
# [18] = tested on: bulrush (Scirpus juncoides Roxb.); test: as above; conditions: Dosage 5 kg/ha; one-leaved stage; 21 days after treatment
# Description: as §4
# [19] = tested on: barnyard grass (Echinochloa crus-galli Beauv.); test: as above; conditions: Dosage 5 kg/ha; one-leaved stage; 21 days after treatment
# Description: as §4
# [20] = tested on: soybean plant; test: Test Example 4: phytotoxicity to upland crop plants, treatment after emergence; conditions: dosage 5 kg/ha, sprayed after emergence, judged 14 days after treatment
# From the text: as §1
# [21] = tested on: wheat; test: as above; conditions: dosage 5 kg/ha, sprayed after emergence, judged 14 days after treatment
# From the text: as §1
compound,measurement,setting,value
CCCNC(=O)c1cc2c(nc1C(=O)Nc1c(CC)ccc(Cl)c1CC)[S+]([O-])CC2 (stereo not drawn) [Compound No. 1028],Herbicidal effect Ga,[1],4 (Weed-killing rate is 90-99%.)
same,Herbicidal effect Am,[2],5 (Weed-killing rate is 100%.)
same,Herbicidal effect Vp,[3],5 (Weed-killing rate is 100%.)
same,Herbicidal effect Xs,[4],5 (Weed-killing rate is 100%.)
same,Herbicidal effect At,[5],5 (Weed-killing rate is 100%.)
same,Herbicidal effect Ec,[6],5 (Weed-killing rate is 100%.)
same,Herbicidal effect Ga,[7],5 (Weed-killing rate is 100%.)
same,Herbicidal effect Am,[8],5 (Weed-killing rate is 100%.)
same,Herbicidal effect Vp,[9],5 (Weed-killing rate is 100%.)
same,Herbicidal effect Xs,[10],5 (Weed-killing rate is 100%.)
same,Herbicidal effect At,[11],5 (Weed-killing rate is 100%.)
same,Herbicidal effect Ec,[12],5 (Weed-killing rate is 100%.)
same,Phytotoxicity So,[13],4 (Crop-killing rate is 90-99%.)
same,Phytotoxicity Wh,[14],5 (Crop-killing rate is 100%.)
same,Pre-emergence treatment Bulrush (herbicidal effect),[15],5 (Weed-killing rate is 100%.)
same,Pre-emergence treatment Barnyard grass (herbicidal effect),[16],5 (Weed-killing rate is 100%.)
same,Post-emergence treatment Monochoria (herbicidal effect),[17],5 (Weed-killing rate is 100%.)
same,Post-emergence treatment Bulrush (herbicidal effect),[18],5 (Weed-killing rate is 100%.)
same,Post-emergence treatment Barnyard grass (herbicidal effect),[19],5 (Weed-killing rate is 100%.)
same,Phytotoxicity So,[20],4 (Crop-killing rate is 90-99%.)
same,Phytotoxicity Wh,[21],5 (Crop-killing rate is 100%.)
"CCCNC(=O)c1cc2c(nc1C(=O)Nc1c(CC)ccc(Cl)c1CC)S(=O)(=O)CC2 [Compound No. 1040, 6-(3-Chloro-2,6-diethylphenyl)-aminocarbonyl-2,3-dihydro-1,1-dioxo-thieno[2,3-b]pyridine-5-carboxylic Acid n-Propylamide]",Herbicidal effect Ga,[1],5 (Weed-killing rate is 100%.)
same,Herbicidal effect Am,[2],5 (Weed-killing rate is 100%.)
same,Herbicidal effect Vp,[3],5 (Weed-killing rate is 100%.)
same,Herbicidal effect Xs,[4],5 (Weed-killing rate is 100%.)
same,Herbicidal effect At,[5],5 (Weed-killing rate is 100%.)
same,Herbicidal effect Ec,[6],5 (Weed-killing rate is 100%.)
same,Herbicidal effect Ga,[7],5 (Weed-killing rate is 100%.)
same,Herbicidal effect Am,[8],5 (Weed-killing rate is 100%.)
same,Herbicidal effect Vp,[9],5 (Weed-killing rate is 100%.)
same,Herbicidal effect Xs,[10],5 (Weed-killing rate is 100%.)
same,Herbicidal effect At,[11],5 (Weed-killing rate is 100%.)
same,Herbicidal effect Ec,[12],5 (Weed-killing rate is 100%.)
same,Phytotoxicity So,[13],4 (Crop-killing rate is 90-99%.)
same,Phytotoxicity Wh,[14],5 (Crop-killing rate is 100%.)
same,Pre-emergence treatment Bulrush (herbicidal effect),[15],5 (Weed-killing rate is 100%.)
same,Pre-emergence treatment Barnyard grass (herbicidal effect),[16],5 (Weed-killing rate is 100%.)
same,Post-emergence treatment Monochoria (herbicidal effect),[17],5 (Weed-killing rate is 100%.)
same,Post-emergence treatment Bulrush (herbicidal effect),[18],5 (Weed-killing rate is 100%.)
same,Post-emergence treatment Barnyard grass (herbicidal effect),[19],5 (Weed-killing rate is 100%.)
same,Phytotoxicity So,[20],4 (Crop-killing rate is 90-99%.)
same,Phytotoxicity Wh,[21],5 (Crop-killing rate is 100%.)
CCNC(=O)c1nc2ccc(O)cc2cc1C(=O)Nc1c(CC)ccc(Cl)c1CC [compound 275],Herbicidal effect Ga,[1],3 (Weed-killing rate is 70-89%.)
same,Herbicidal effect Am,[2],3 (Weed-killing rate is 70-89%.)
same,Herbicidal effect Vp,[3],4 (Weed-killing rate is 90-99%.)
same,Herbicidal effect Xs,[4],3 (Weed-killing rate is 70-89%.)
same,Herbicidal effect At,[5],4 (Weed-killing rate is 90-99%.)
same,Herbicidal effect Ec,[6],4 (Weed-killing rate is 90-99%.)
same,Herbicidal effect Ga,[7],3 (Weed-killing rate is 70-89%.)
same,Herbicidal effect Am,[8],3 (Weed-killing rate is 70-89%.)
same,Herbicidal effect Vp,[9],4 (Weed-killing rate is 90-99%.)
same,Herbicidal effect Xs,[10],3 (Weed-killing rate is 70-89%.)
same,Herbicidal effect At,[11],4 (Weed-killing rate is 90-99%.)
same,Herbicidal effect Ec,[12],4 (Weed-killing rate is 90-99%.)
same,Phytotoxicity So,[13],0 (Crop-killing rate is 0-20% (No Phytotoxicity).)
same,Phytotoxicity Wh,[14],1 (Crop-killing rate is 1-39%.)
same,Pre-emergence treatment Bulrush (herbicidal effect),[15],5 (Weed-killing rate is 100%.)
same,Pre-emergence treatment Barnyard grass (herbicidal effect),[16],5 (Weed-killing rate is 100%.)
same,Post-emergence treatment Monochoria (herbicidal effect),[17],5 (Weed-killing rate is 100%.)
same,Post-emergence treatment Bulrush (herbicidal effect),[18],4 (Weed-killing rate is 90-99%.)
same,Post-emergence treatment Barnyard grass (herbicidal effect),[19],5 (Weed-killing rate is 100%.)
same,Phytotoxicity So,[20],1 (Crop-killing rate is 1-39%.)
same,Phytotoxicity Wh,[21],2 (Crop-killing rate is 40-69%.)
CCCNC(=O)c1nc2ccc(O)cc2cc1C(=O)Nc1c(CC)ccc(Cl)c1CC [compound 276],Herbicidal effect Ga,[1],4 (Weed-killing rate is 90-99%.)
same,Herbicidal effect Am,[2],4 (Weed-killing rate is 90-99%.)
same,Herbicidal effect Vp,[3],5 (Weed-killing rate is 100%.)
same,Herbicidal effect Xs,[4],4 (Weed-killing rate is 90-99%.)
same,Herbicidal effect At,[5],5 (Weed-killing rate is 100%.)
same,Herbicidal effect Ec,[6],5 (Weed-killing rate is 100%.)
same,Herbicidal effect Ga,[7],4 (Weed-killing rate is 90-99%.)
same,Herbicidal effect Am,[8],4 (Weed-killing rate is 90-99%.)
same,Herbicidal effect Vp,[9],5 (Weed-killing rate is 100%.)
same,Herbicidal effect Xs,[10],4 (Weed-killing rate is 90-99%.)
same,Herbicidal effect At,[11],5 (Weed-killing rate is 100%.)
same,Herbicidal effect Ec,[12],5 (Weed-killing rate is 100%.)
same,Phytotoxicity So,[13],0 (Crop-killing rate is 0-20% (No Phytotoxicity).)
same,Phytotoxicity Wh,[14],2 (Crop-killing rate is 40-69%.)
same,Pre-emergence treatment Bulrush (herbicidal effect),[15],5 (Weed-killing rate is 100%.)
same,Pre-emergence treatment Barnyard grass (herbicidal effect),[16],5 (Weed-killing rate is 100%.)
same,Post-emergence treatment Monochoria (herbicidal effect),[17],5 (Weed-killing rate is 100%.)
same,Post-emergence treatment Bulrush (herbicidal effect),[18],4 (Weed-killing rate is 90-99%.)
same,Post-emergence treatment Barnyard grass (herbicidal effect),[19],3 (Weed-killing rate is 70-89%.)
same,Phytotoxicity So,[20],2 (Crop-killing rate is 40-69%.)
same,Phytotoxicity Wh,[21],3 (Crop-killing rate is 70-89%.)
